What was measured:
Aromatase = target: T1, Aromatase (Homo sapiens, UniProt P11511)
T1 sequence (P11511 whole entry): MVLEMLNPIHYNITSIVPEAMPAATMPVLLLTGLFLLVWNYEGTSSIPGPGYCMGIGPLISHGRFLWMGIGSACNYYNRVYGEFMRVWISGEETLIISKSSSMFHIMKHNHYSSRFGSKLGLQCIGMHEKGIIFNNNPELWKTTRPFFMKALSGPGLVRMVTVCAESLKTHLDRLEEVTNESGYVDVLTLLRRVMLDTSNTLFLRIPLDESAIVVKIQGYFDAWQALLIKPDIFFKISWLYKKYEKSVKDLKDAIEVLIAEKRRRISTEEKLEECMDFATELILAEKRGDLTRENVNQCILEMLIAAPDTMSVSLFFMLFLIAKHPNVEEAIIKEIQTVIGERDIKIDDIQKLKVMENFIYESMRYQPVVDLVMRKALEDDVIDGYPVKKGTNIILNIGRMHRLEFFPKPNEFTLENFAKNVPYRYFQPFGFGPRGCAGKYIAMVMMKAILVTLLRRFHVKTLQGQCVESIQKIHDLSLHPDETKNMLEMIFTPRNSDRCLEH
Description: Inhibition of Cytochrome P450 19A1 in human placenta

[1] = Compound was evaluated for the spectral dissociation constant; assay type: ADME; settings: read-out: Ks

Row | IC50 (Aromatase) | Kd [1] | SMILES
1 | 3.2 µM | – | CCCCCCC[C@]1(c2ccncc2)CCC(=O)NC1=O
2 | – | 0.51 µM | CCCCCCCCN1C(=O)CCC(CC)(c2ccncc2)C1=O (centres undefined)
3 | 3.6 µM | – | CCCCCC[C@]1(c2ccncc2)CCC(=O)NC1=O
4 | 2.5 µM | – | CCCCC[C@]1(c2ccncc2)CCC(=O)NC1=O

Reference: ChEMBL document CHEMBL1125058 (J Med Chem, 1990)
